According to patent US4546176A, “7-Carboxymethoxyphenylacetamido-3-cephem derivatives and antibacterial preparations containing the same” (Eisai Co., Ltd., priority 1982, dated 1985):
Converted amounts (≈) assume the structure as drawn.

What was measured:
[1] = Solubility in water; type: physicochemical; details: in distilled water at 25° C.
[2] = tested on: Ser. marcescens ES-75; experiment: Antibacterial activities (MIC), Ser. marcescens ES-75; type: cell-based; details: Serratia marcescens, ES75
Excerpt: (§1) (1) Antibacterial activities (MIC):

[3] = tested on: Escher. coli NIHJ; experiment: Antibacterial activities (MIC), Escher. coli NIHJ; type: cell-based; details: Escherichia coli
Excerpt: as §1

[4] = tested on: Proteus morganii EP-14; experiment: Antibacterial activities (MIC), Proteus morganii EP-14; type: cell-based; details: Morganella morganii, EP14
Excerpt: as §1

[5] = tested on: Staph. aureus 209-P; experiment: Antibacterial activities (MIC), Staph. aureus 209-P; type: cell-based; details: Staphylococcus aureus
Excerpt: as §1

[6] = tested on: Kleb. pneumoniae EK-6; experiment: Antibacterial activities (MIC), Kleb. pneumoniae EK-6; type: cell-based; details: Klebsiella pneumoniae, EK6
Excerpt: as §1

[7] = tested on: Pseud. aeruginosa EP-01; experiment: Antibacterial activities (MIC), Pseud. aeruginosa EP-01; type: cell-based; details: Pseudomonas aeruginosa, EP01
Excerpt: as §1

[8] = Urinary excretion rate in mice; type: in vivo, ICR male mice; details: mouse, sc, 20 mg/kg subcutaneous, urine up to 6 hours, bioassay
Experimental: ICR male mice (body weight: 20-30 g) were used. Each compound was dissolved in an M/15 phosphate buffer (pH 7.0) and administered in an amount of 20 mg/kg by the subcutaneous route. Urine was collected up to 6 hours after the administration. The concentration of the compound was determined by the bioassey technique (the agar-well method) using Pseudomonas aeruginosa as a test microorganism. On the basis of the thus-determined concentration, its excreted amount was obtained. The urinary excretion rate was then calculated from the excreted amount based on the amount administered.

[9] = Acute toxicity LD50 (mouse, oral); details: in vivo
Excerpt: The acute toxicity values [LD50 (mouse, oral)] of the following compounds were each 4 g/kg or greater;

Compound | solubility [1] | MIC [2] | MIC [3] | MIC [4] | MIC [5] | MIC [6] | MIC [7] | dose excreted at 6 h [8] | LD50 [9]
CCn1cc(C(=O)NC(C(=O)NC2C(=O)N3C(C(=O)O)=C(CSc4nnnn4C)CSC23)c2ccc(OCC(=O)O)cc2)c(=O)c2cc(OC(C)=O)c(OC(C)=O)cc21 (stereo not drawn) [Example 11] | – | ≤ 0.05 µg/mL | 0.2 µg/mL (≈ 0.235 µM) | 0.4 µg/mL (≈ 0.47 µM) | 12.5 µg/mL (≈ 14.7 µM) | ≤ 0.05 µg/mL | 0.1 µg/mL (≈ 0.118 µM) | – | ≥ 4000 mg/kg
Cc1oc2cc(O)c(O)cc2c(=O)c1C(=O)N[C@@H](C(=O)N[C@@H]1C(=O)N2C(C(=O)O)=C(CSc3nnnn3CC(=O)O)CS[C@H]12)c1ccc(OCC(=O)O)cc1 [Example 15, Trisodium 7β-[D-2-(4-carboxymethoxyphenyl)-2-(6,7-dihydroxy-2-methyl-4-oxo-4H-1-benzopyran-3-carboxamido)acetamido]-3-(1-carboxymethyl-5-tetrazolyl)thiomethyl-3-cephem-4-carboxylate] | ≥ 300 mg/mL | 0.1 µg/mL | 0.2 µg/mL | 3.13 µg/mL | 100 µg/mL | ≤ 0.05 µg/mL | 0.2 µg/mL | 32% | ≥ 4000 mg/kg
Cc1oc2cc(O)c(O)cc2c(=O)c1C(=O)N[C@@H](C(=O)N[C@@H]1C(=O)N2C(C(=O)[O-])=C(C[n+]3ccc(C(N)=O)cc3)CS[C@H]12)c1ccc(OCC(=O)O)cc1 [Example 41, Sodium 7β-[D-2-(4-carboxymethoxyphenyl)-2-(6,7-dihydroxy-2-methyl-4-oxo-4H-1-benzopyran-3-carboxamido)acetamido]-3-(4-carbamoylpyridinium)-methyl-3-cephem-4-carboxylate] | ≥ 300 mg/mL | 0.4 µg/mL | 0.4 µg/mL | 6.25 µg/mL | 50 µg/mL | ≤ 0.05 µg/mL | 0.2 µg/mL | 74% | –
Cc1oc2cc(O)c(O)cc2c(=O)c1C(=O)N[C@@H](C(=O)N[C@@H]1C(=O)N2C(C(=O)[O-])=C(C[n+]3ccc(CCS(=O)(=O)O)cc3)CS[C@H]12)c1ccc(OCC(=O)O)cc1 [Example 42, Disodium 7β-[D-2-(4-carboxymethoxyphenyl)-2-(6,7-dihydroxy-2-methyl-4-oxo-4H-1-benzopyran-3-carboxamido)acetamido]-3-[4-(2-sulfoethyl)-pyridinium]methyl-3-cephem-4-carboxylate] | ≥ 300 mg/mL | 0.2 µg/mL | 0.2 µg/mL | 3.13 µg/mL | 100 µg/mL | ≤ 0.05 µg/mL | 0.2 µg/mL | 46% | ≥ 4000 mg/kg
Cc1oc2cc(O)c(O)cc2c(=O)c1C(=O)N[C@@H](C(=O)N[C@@H]1C(=O)N2C(C(=O)[O-])=C(C[n+]3cccc(CC(=O)O)c3)CS[C@H]12)c1ccc(OCC(=O)O)cc1 [Example 43, Disodium 7β-[D-2-(4-carboxymethoxyphenyl)-2-(6,7-dihydroxy-2-methyl-4-oxo-4H-1-benzopyran-3-carboxamido)acetamido]-3-(3-carboxymethylpyridinium)-methyl-3-cephem-4-carboxylate] | ≥ 300 mg/mL | 0.2 µg/mL | 0.8 µg/mL | 12.5 µg/mL | 100 µg/mL | ≤ 0.05 µg/mL | 0.1 µg/mL | 25% | ≥ 4000 mg/kg
Cc1oc2cc(O)c(O)cc2c(=O)c1C(=O)N[C@@H](C(=O)N[C@@H]1C(=O)N2C(C(=O)[O-])=C(C[n+]3ccc(C(=O)O)cc3)CS[C@H]12)c1ccc(OCC(=O)O)cc1 [Example 55, Disodium 7β-[D-2-(4-carboxymethoxyphenyl)-2-(6,7-dihydroxy-2-methyl-4-oxo-4H-1-benzopyran-3-carboxamido)acetamido]-3-(4-carboxypyridinium)-methyl-3-cephem-4-carboxylate] | – | 0.4 µg/mL | 0.4 µg/mL | 6.25 µg/mL | 100 µg/mL | ≤ 0.05 µg/mL | ≤ 0.05 µg/mL | – | ≥ 4000 mg/kg
Cc1oc2cc(O)c(O)cc2c(=O)c1C(=O)N[C@@H](C(=O)N[C@@H]1C(=O)N2C(C(=O)[O-])=C(C[n+]3ccc(C(N)=O)cc3)CS[C@H]12)c1ccc(OCC(=O)O)cc1 [Example 57, 7β-[D-2-(4-Carboxymethoxyphenyl)-2-(6,7-dihydroxy-2-methyl-4-oxo-4H-1-benzopyran-3-carboxamido)acetamido]-3-(4-carbamoylpyridinium)methyl-3-cephem-4-carboxylate] | – | – | – | – | – | – | – | – | ≥ 4000 mg/kg

More lines, main results first:

solubility [1] | MIC [2] | MIC [3] | MIC [4] | MIC [5] | MIC [6] | MIC [7] | dose excreted at 6 h [8] | Compound | LD50 [9]
≥ 200 mg/mL | – | – | – | – | – | – | – | CC(=O)OCC1=C(C(=O)O)N2C(=O)[C@@H](NC(=O)[C@H](NC(=O)c3coc4cc(O)c(O)cc4c3=O)c3ccc(OCC(=O)O)cc3)[C@H]2SC1 [Example 2] | –
≥ 200 mg/mL | 0.2 µg/mL | 0.8 µg/mL | 0.8 µg/mL | 6.25 µg/mL | ≤ 0.05 µg/mL | ≤ 0.05 µg/mL | – | Cn1nnnc1SCC1=C(C(=O)O)N2C(=O)[C@@H](NC(=O)[C@H](NC(=O)c3coc4cc(O)c(O)cc4c3=O)c3ccc(OCC(=O)O)cc3)[C@H]2SC1 [Example 4, Disodium 7β-[D-2-(4-carboxymethoxyphenyl)-2-(6,7-dihydroxy-4-oxo-4H-1-benzopyran-3-carboxamido)-acetamido]-3-(1-methyl-5-tetrazolyl)thiomethyl-3-cephem-4-carboxylate] | –
≥ 300 mg/mL | 0.2 µg/mL | 0.8 µg/mL | 1.56 µg/mL | 50 µg/mL | ≤ 0.05 µg/mL | 0.1 µg/mL | 20% | O=C(O)COc1ccc([C@@H](NC(=O)c2coc3cc(O)c(O)cc3c2=O)C(=O)N[C@@H]2C(=O)N3C(C(=O)O)=C(CSc4nnnn4CC(=O)O)CS[C@H]23)cc1 [Example 8, Trisodium 7β-[D-2-(4-carboxymethoxyphenyl)-2-(6,7-dihydroxy-4-oxo-4H-1-benzopyran-3-carboxamido)-acetamido]-3-(1-carboxymethyl-5-tetrazolyl)thiomethyl-3-cephem-4-carboxylate] | –
– | 0.8 µg/mL | 0.4 µg/mL | 6.25 µg/mL | 100 µg/mL | ≤ 0.05 µg/mL | 0.8 µg/mL | 30% | Cc1oc2c(O)c(O)ccc2c(=O)c1C(=O)N[C@@H](C(=O)N[C@@H]1C(=O)N2C(C(=O)O)=C(CSc3nnnn3CC(=O)O)CS[C@H]12)c1ccc(OCC(=O)O)cc1 [Example 27, Trisodium 7β-[D-2-(4-carboxymethoxyphenyl)-2-(7,8-dihydroxy-2-methyl-4-oxo-4H-1-benzopyran-3-carboxamido)acetamido]-3-(1-carboxymethyl-5-tetrazolyl)-thiomethyl-3-cephem-4-carboxylate] | –
≥ 300 mg/mL | 0.6 µg/mL | 0.8 µg/mL | 12.5 µg/mL | 100 µg/mL | 0.1 µg/mL | 0.2 µg/mL | 39% | Cc1oc2cc(O)c(O)cc2c(=O)c1C(=O)N[C@@H](C(=O)N[C@@H]1C(=O)N2C(C(=O)[O-])=C(C[n+]3ccccc3)CS[C@H]12)c1ccc(OCC(=O)O)cc1 [Example 40, Sodium 7β-[D-2-(4-carboxymethoxyphenyl)-2-(6,7-dihydroxy-2-methyl-4-oxo-4H-1-benzopyran-3-carboxamido)acetamido]-3-pyridiniummethyl-3-cephem-4-carboxylate] | –
≥ 300 mg/mL | 0.8 µg/mL | 0.8 µg/mL | 25 µg/mL | 25 µg/mL | ≤ 0.05 µg/mL | 0.1 µg/mL | 40% | O=C(O)COc1ccc([C@@H](NC(=O)c2coc3cc(O)c(O)cc3c2=O)C(=O)N[C@@H]2C(=O)N3C(C(=O)[O-])=C(C[n+]4ccccc4)CS[C@H]23)cc1 [Example 44, Sodium 7β-[D-2-(4-carboxymethoxyphenyl)-2-(6,7-dihydroxy-4-oxo-4H-1-benzopyran-3-carboxamido)-acetamido]-3-pyridiniummethyl-3-cephem-4-carboxylate] | –
≥ 300 mg/mL | 0.8 µg/mL | 0.8 µg/mL | 6.25 µg/mL | 25 µg/mL | ≤ 0.05 µg/mL | 0.1 µg/mL | 38% | NC(=O)c1cc[n+](CC2=C(C(=O)[O-])N3C(=O)[C@@H](NC(=O)[C@H](NC(=O)c4coc5cc(O)c(O)cc5c4=O)c4ccc(OCC(=O)O)cc4)[C@H]3SC2)cc1 [Example 45, Sodium 7β-[D-2-(4-carboxymethoxyphenyl)-2-(6,7-dihydroxy-4-oxo-4H-1-benzopyran-3-carboxamido)-acetamido]-3-(4-carbamoylpyridinium)methyl-3-cephem-4-carboxylate] | –
≥ 300 mg/mL | 0.8 µg/mL | 0.4 µg/mL | 25 µg/mL | 50 µg/mL | ≤ 0.05 µg/mL | 0.4 µg/mL | 62% | O=C(O)COc1ccc([C@@H](NC(=O)c2coc3cc(O)c(O)cc3c2=O)C(=O)N[C@@H]2C(=O)N3C(C(=O)[O-])=C(C[n+]4ccc(CCS(=O)(=O)O)cc4)CS[C@H]23)cc1 [Example 46, Disodium 7β-[D-2-(4-carboxymethoxyphenyl)-2-(6,7-dihydroxy-4-oxo-4H-1-benzopyran-3-carboxamido)-acetamido]-3-[4-(2-sulfoethyl)pyridinium]methyl-3-cephem-4-carboxylate] | –
